Read-outs that look alike come from different tables or passages of the source.
Experiments:
[1] = test system: MDA-MB-435 cells; assay: Proliferation (CFDA-AM esterase assay) of cells grown on SISgel, plastic or Matrigel, 48 h drug exposure; format: cell-based; conditions: for SI (EC50-P/EC50-S): ratio of EC50 on plastic versus SISgel
Excerpt: (§1) The libraries were obtained from the NCI (Diversity Library I) comprised of 2,918 compounds and a 10,000 compound diversity library from ChemBridge, Inc. (DiverSet-EXP). The NCI library is no longer available in the form used here, but how it was constructed is described (http://dtp.nci.nih.gov/branches/dscb/diversity_explanation.html). The ChemBridge library is a subset (Set Code NM1024) of the full 50,000 compound library (http://www.chembridge.com/screening_libraries/diversity_libraries/). Compounds were diluted to 100 μM before use. SISgel was prepared as described previously from powdered porcine small intestine submucosa obtained from Cook Biotech (W. Lafayette, IN). It is a natural product that is used extensively in tissue engineering as a bioscaffold. J82 bladder cancer cells and other cell lines were obtained from the ATCC (Bethesda, MD). The basic principle is that cells grown on any ECM are, in general, expected to show higher resistance to anticancer compounds than when grown on plastic. Therefore, compounds that show a higher activity toward cancer cells on a normal ECM than on a plastic surface would be candidates to target suppressed, micrometastatic cells. Efficacy in vitro was assessed by plating 30,000 cells in 50 μL of high glucose DMEM with penicillin-streptomycin and 10 % fetal calf serum on SISgel in a 96-well plate containing 50 μL of gelled SISgel per well. Cells were allowed to attach and assume the SISgel phenotype for 48 h. A matching plate without SISgel was prepared 24 h later by pipetting 3,000 cells in 100 μL of high glucose DMEM with penicillin-streptomycin and 10 % fetal calf serum into each well of 96 well plate. The cells were allowed to attach and grow for 24 h. These numbers of cells gave approximately equal replication rates at the time drug was added for cells grown on the plastic surface or SISgel as determined by the fraction of S-phase cells identified by flow cytometry. The cells were exposed to drug in fresh medium for 48 h, at which time the cell number was determined using the CFDA-AM cellular esterase proliferation assay (cat. #C1354, Life Technologies). For screening the results are reported as the ratio of cell count of cells on the plastic surface to the cell count on SISgel. An initial difference of 1.5 fold identified potential hits. All potential hits were confirmed in triplicate. Those compounds that replicated were confirmed by a full dose–response study yielding an EC50 using five wells per drug concentration. Data were analyzed using nonlinear regression to a sigmoid curve with Prism 4 (GraphPad Software, Inc., LaJolla, CA). Potential hits that were confirmed by dose–response using J82 were also tested with MDA-MB-435 breast cancer, PC-3 metastatic prostate cancer, Capan1 pancreatic cancer and the J82 bladder cancer cell lines.

[2] = test system: cancer cells on SISgel or plastic; assay: Activity of leads and analogs on cancer cells grown on plastic vs SISgel (cell line not stated); format: cell-based; conditions: for Hit: YES/NO; for SR: ratio IC50-p/IC50-S
Summary of the method: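 Cells on SISgel (30,000/well, 48 h attachment) or plastic (3,000/well, 24 h) were exposed to compound (diluted to 100 μM) for 48 h in high-glucose DMEM with 10 % FCS. Cell number quantified by CFDA-AM esterase assay; results given as plastic:SISgel cell-count ratio, hits confirmed in triplicate, curves fitted sigmoidally.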

[3] = test system: mice; assay: Toxicity / maximum tolerated dose in mice; conditions: for NOAEL dose, osmotic pump: Alzet #2004 osmotic pump, 4 weeks; for MTD / toxicity in mice: mice
[4] = test system: 4T1 parental cells; assay: EC50 on parental 4T1 cell line grown on plastic surface; format: cell-based, mouse
Method: Because cancer stem cells are highly resistant to conventional chemotherapy and are thought to initiate tumors, the activity of the DT series of drugs was also checked against cancer stem cells obtained from the 4T1 line. […] For comparison the EC50 values of DT310, DT320, and doxorubicin were determined in 4T1 parental cells plated on plastic. Because this assay targeting stem cells was performed in suspension culture, we also tested whether SISgel differentiated the stem cells. As indicated by the presence of pluripotency markers (Nanog, Sox2, Oct4), the cells retained their pluripotency markers on SISgel (Fig. 5). […] The 4T1 stem cells could not be tested on Matrigel or on plastic because they differentiate and are therefore no longer stem cells. 4T1 cancer stem cells were much more sensitive to the DT agents, particularly to DT320, than to conventional chemotherapeutic drugs.

[5] = test system: MDA-MB-231 (breast); assay: Proliferation EC50 on SISgel vs monolayer; format: cell-based; conditions: n = 6-8
[6] = test system: Capan-1 (pancreatic); assay: Proliferation EC50 on SISgel vs monolayer; format: cell-based; conditions: n = 6-8
Excerpt: as §1

[7] = test system: J82 (bladder); assay: Proliferation EC50 on SISgel vs monolayer; format: cell-based; conditions: n = 6-8
Excerpt: as §1

[8] = test system: PC-3 (prostate); assay: Proliferation EC50 on SISgel vs monolayer; format: cell-based; conditions: n = 6-8
Excerpt: as §1

[9] = test system: U251 (glioblastoma); assay: Proliferation EC50 on Matrigel vs SISgel; format: cell-based
[10] = MDA-MB-435 cells on SISgel, read-out: EC50-S
[11] = MDA-MB-435 cells on plastic, read-out: EC50-P
[12] = cells on SISgel, read-out: IC50-S
[13] = cells on plastic, read-out: IC50-p
[14] = PC-3 monolayer, read-out: EC50 Monolayer
[15] = PC-3 on SISgel, read-out: EC50 SISgel

| SMILES | EC50 [1, 10] | EC50 [1, 11] | SI (EC50-P/EC50-S) [1] | Hit [2] | IC50 [2, 12] | IC50 [2, 13] | SR [2] | NOAEL dose, osmotic pump [3] | MTD [3] | toxicity in mice [3] | EC50 ([4]; plastic surface) | EC50 [8, 14] | EC50 [8, 15] | other results |
| --- | --- | --- | --- | --- | --- | --- | --- | --- | --- | --- | --- | --- | --- | --- |
| O=S(=O)([O-])c1ccc2c(N=Nc3cccc4ccccc34)c(O)c(S(=O)(=O)[O-])cc2c1.[Na+].[Na+] [DT310, 4-(1-naphthalenylhydrazinylidene) -3-oxonaphthalene-2,7-disulfonic acid] | 35.9 µM | 86.5 µM | 2.4 | YES | 36 µM | 87 µM | 2.4 | 23.4 µg/h | 65 mg/kg | very low toxicity | 14.4 µM |  |  |  |
| O=S(=O)([O-])c1cc(O)c2c(O)c(N=Nc3cccc4ccccc34)c(S(=O)(=O)[O-])cc2c1.[Na+].[Na+] [DT320, 4,5-Dihydroxy-3-(1-naphthalenylazo)-2,7-naphthalenedisulfonic acid disodium salt] | 8.7 µM | 78 µM | 9.0 | YES | 9 µM | 78 µM | 9.0 | 26.7 µg/h | 75 mg/kg | very low toxicity | 19.7 µM | 41.5 ± 4.1 µM | 19.7 ± 2 µM | EC50 ([5]; MDA-MB-231 monolayer, read-out: EC50 Monolayer): 78.1 ± 7.1 µM; EC50 ([5]; MDA-MB-231 on SISgel, read-out: EC50 SISgel): 8.7 ± 1.1 µM; Ratio ([1]; Matrigel/SISgel EC50, MDA-MB-435): 2.4; EC50 ([6]; Capan-1 monolayer, read-out: EC50 Monolayer): 80.1 ± 10.2 µM; EC50 ([6]; Capan-1 on SISgel, read-out: EC50 SISgel): 22.9 ± 4.8 µM; EC50 ([7]; J82 monolayer, read-out: EC50 Monolayer): 71.2 ± 8.1 µM; EC50 ([7]; J82 on SISgel, read-out: EC50 SISgel): 30.9 ± 4.8 µM; Ratio ([9]; Matrigel/SISgel EC50, U251): 1.5; EC50 ([9]; U251 on Matrigel, read-out: EC50 Matrigel): 95 µM; EC50 ([9]; U251 on SISgel, read-out: EC50 SISgel): 64.6 µM |
| COc1cccc2c1C(=O)c1c(O)c3c(c(O)c1C2=O)C[C@@](O)(C(=O)CO)C[C@@H]3O[C@H]1C[C@H](N)[C@H](O)[C@H](C)O1 [Doxorubicin, reference compound] |  |  | 1.05 |  |  |  |  |  |  |  |  | 104 ± 6.1 µM | 102 ± 7 µM | EC50 ([5]; Homo sapiens, MDA-MB-231 monolayer, read-out: EC50 Monolayer): 45.4 ± 1.9 µM; EC50 ([5]; Homo sapiens, MDA-MB-231 on SISgel, read-out: EC50 SISgel): 47.8 ± 4 µM; EC50 ([1]; Homo sapiens, MDA-MB-435 cells on SISgel, read-out: EC50-S): 45.4 µM; EC50 ([1]; Homo sapiens, MDA-MB-435 cells on plastic, read-out: EC50-P): 47.8 µM; EC50 ([4]; Mus musculus, 4T1): 4.7 µM |

— publication PMC4434572, “Identification of novel drugs to target dormant micrometastases” (BMC Cancer, 2015)
